A short description of data set [1]: Water/octanol partition of nitroxides, ratio determined by EPR. The format is physicochemical. The note with it: Octanol:water. The text has this: CHD, 2-spirocyclohexane doxyl(2-spirocyclohexane-5,5-dimethyl-3-oxazolidinoxyl) and OXANO, 2-ethyl-2,5,5-trimethyl-3-oxazolidine-1-oxyl as well as other nitroxides were synthesized as described by Keana et al (J. Am. Chem. Soc., 89, 3055-3056, 1967) For the general synthesis of the cyclic amines, the appropriate starting ketone was reacted with 2-amino-2-methyl-1-propanol in benzene in the presence of catalytic amounts of p-toluene sulfonic acid. As the cyclic structure formed, water was eliminated. The volume of water collected in a Dean Stark apparatus was monitored and used to gauge the reaction progress. The amines thus produced were purified through fractional distillation under reduced pressure, characterized by 220 MHz ^1H NMR, IR, UV, either EI or CI mass spectroscopy, and subsequently oxidized to the corresponding nitroxides using m-chloroperbenzoic acid. The nitroxides were purified by silica flash chromatography (Still et al, J. Org. Chem., 43, 2923-2925, 1978). Water/octanol ratios were determined by placing a quantity of nitroxide in water+octanol within a separatory funnel. The mixture was shaken thoroughly and allowed to separate for 15 min, whereupon aliquots were taken from both fractions and the ratio of nitroxide distribution was determined using electron paramagnetic resonance (EPR) spectroscopy, by comparing the intensities of signal obtained under N2.

In data set [2] the test system is Chinese hamster V79 cells. The data set is described as follows: Protection of cells exposed to H2O2 under hypoxic conditions. Type of data set: cell-based. The note with it: 600 μM H2O2, 1 h, 37° C. As for the experimental part: Some studies required exposure to H2O2 under hypoxic conditions. For these studies, cells dispersed in 1.8 ml of medium were plated into specially designed glass flasks (Russo et al, Radiat. Res., 103, 232-239, 1985). The flasks were sealed with soft rubber stoppers, and 19-gauge needles were pushed through to act as entrance and exit ports for a humidified gas mixture of 95% nitrogen/5% CO2 (Matheson Gas Products). […] Stoppered flasks were connected in series and mounted on a reciprocating platform and gassed at 37° C. for 45 min. […] After 45 min of gassing, the hypoxic H2O2 solution was added to the cell monolayer culture. The cells were exposed to H2O2 for 1 h under hypoxic conditions. N2 gas flow was maintained during the H2O2 exposure. In parallel flasks, DF and CHD were added as described above, and were present during the entire gassing procedure. Following treatment, cell survival was assessed as described above.

On to `CC1(C)CN([O])C2(CCCCC2)O1` [CHD, 2-spirocyclohexane-5,5-dimethyl-3-oxazolidinoxyl], for which the Partition coefficient in data set [1] came out at 80. In addition, the “protection against H2O2 cytotoxicity under hypoxic conditions” value in data set [2] is recorded as “protects”.

These data come from patent publication US6605619B1, “Nitroxides as protectors against oxidatives stress” (The United States of America as represented by the …, priority 1992, dated 2003).
